Data reported in PMC11642016 (International Journal of Molecular Sciences, 2024).
Several values for one entry are separate records, joined by “and”; a condition that tells them apart may be missing. Identical values can stand only once. Like-named read-outs stand apart in the source and are kept apart here.

Columns and labels:
PANC-1 cells = assay: CellTiter-Glo luminescent cell viability assay, PANC-1
[1] = CellTiter-Glo luminescent cell viability assay, primary fibroblasts; details: human, primary skin fibroblasts (non-tumorous), Primer fibroblast Cell viability (% of controll), 72 h, dose–response, individual replicates
[2] = tested on: non-tumorous primary fibroblast cells; assay: as above; details: for Primer fibroblast Cell viability (% of controll): dose–response, individual replicates; for IC50: Homo sapiens, Fibroblast
Fadu cells = assay: CellTiter-Glo luminescent cell viability assay, Fadu
[3] = 0.7 μM, 72 h, dose–response, individual replicates
[4] = 1 μM, 72 h, dose–response, individual replicates
[5] = 2.3 μM, 72 h, dose–response, individual replicates
[6] = 3.4 μM, 72 h, dose–response, individual replicates
[7] = 5.1 μM, 72 h, dose–response, individual replicates
[8] = 7.7 μM, 72 h, dose–response, individual replicates
[9] = 17.3 μM, 72 h, dose–response, individual replicates
[10] = 26 μM, 72 h, dose–response, individual replicates

IC50 (PANC-1 cells; Homo sapiens, PANC-1, 72 h, read-out: IC50 Value ± SEM PANC-1, 72 h treatment, best-fit values, n = 3): 3.1 ± 0.17 µM
IC50 (PANC-1 cells; Homo sapiens, PANC-1, read-out: PANC-1 IC50 values, Mean, mean of independently fitted replicate IC50 values (Supplement S.6)): 3.06 µM
Structure (SMILES): CNCC#Cc1cccc(CN2C(=O)C3=C(CCN(Cc4ccc(-n5cc(-c6ccc(F)cc6)nn5)cc4)C3)N3CCN=C23)c1 [43b]
PANC-1 Cell viability (% of controll) (PANC-1 cells; [3]): 103 % of controll and 101 % of controll
PANC-1 Cell viability (% of controll) (PANC-1 cells; [4]): 107 % of controll
PANC-1 Cell viability (% of controll) (PANC-1 cells; 1.5 μM, 72 h, dose–response, individual replicates): 99 % of controll and 110 % of controll
PANC-1 Cell viability (% of controll) (PANC-1 cells; [5]): 102 % of controll and 103 % of controll
PANC-1 Cell viability (% of controll) (PANC-1 cells; [6]): 10 % of controll and 7 % of controll
PANC-1 Cell viability (% of controll) (PANC-1 cells; [7]): 0 % of controll
PANC-1 Cell viability (% of controll) (PANC-1 cells; [8]): 0 % of controll
PANC-1 Cell viability (% of controll) (PANC-1 cells; [9]): 0 % of controll
PANC-1 Cell viability (% of controll) (PANC-1 cells; [10]): 0 % of controll
viability at 0.7 µM (PANC-1 cells; Homo sapiens, PANC-1, 72 h, read-out: PANC-1 Cell viability (% of controll), 0.7 μM, 72 h, dose–response, individual replicates): 104%
viability at 1 µM (PANC-1 cells; Homo sapiens, PANC-1, 72 h, read-out: PANC-1 Cell viability (% of controll), 1 μM, 72 h, dose–response, individual replicates): 104%
viability at 1.5 µM (PANC-1 cells; Homo sapiens, PANC-1, 72 h, read-out: PANC-1 Cell viability (% of controll), 1.5 μM, 72 h, dose–response, individual replicates): 104%
viability at 2.3 µM (PANC-1 cells; Homo sapiens, PANC-1, 72 h, read-out: PANC-1 Cell viability (% of controll), 2.3 μM, 72 h, dose–response, individual replicates): 106%
viability at 3.4 µM (PANC-1 cells; Homo sapiens, PANC-1, 72 h, read-out: PANC-1 Cell viability (% of controll), 3.4 μM, 72 h, dose–response, individual replicates): 13%
viability at 5.1 µM (PANC-1 cells; Homo sapiens, PANC-1, 72 h, read-out: PANC-1 Cell viability (% of controll), 5.1 μM, 72 h, dose–response, individual replicates): 0%
viability at 7.7 µM (PANC-1 cells; Homo sapiens, PANC-1, 72 h, read-out: PANC-1 Cell viability (% of controll), 7.7 μM, 72 h, dose–response, individual replicates): 0%
viability at 17.3 µM (PANC-1 cells; Homo sapiens, PANC-1, 72 h, read-out: PANC-1 Cell viability (% of controll), 17.3 μM, 72 h, dose–response, individual replicates): 0%
viability at 26 µM (PANC-1 cells; Homo sapiens, PANC-1, 72 h, read-out: PANC-1 Cell viability (% of controll), 26 μM, 72 h, dose–response, individual replicates): 0%
Selectivity Index (SI) Fibroblast/PANC-1 (PANC-1 cells; ratio of mean best-fit IC50 for primary fibroblasts and best-fit IC50 for PANC-1): 1.1
viability at 72 h, 0.7 µM ([1]; 0.7 μM): 96%
viability at 72 h, 1 µM ([1]; 1 μM): 102%
viability at 72 h, 1.5 µM ([1]; 1.5 μM): 107%
viability at 72 h, 2.3 µM ([1]; 2.3 μM): 105%
viability at 72 h, 5.1 µM ([1]; 5.1 μM): 0%
viability at 72 h, 7.7 µM ([1]; 7.7 μM): 0%
viability at 72 h, 17.3 µM ([1]; 17.3 μM): 0%
viability at 72 h, 26 µM ([1]; 26 μM): 0%
Primer fibroblast Cell viability (% of controll) ([2]; 0.7 μM, 72 h): 105 % of controll and 104 % of controll
Primer fibroblast Cell viability (% of controll) ([2]; 1 μM, 72 h): 113 % of controll and 103 % of controll
Primer fibroblast Cell viability (% of controll) ([2]; 1.5 μM, 72 h): 105 % of controll and 97 % of controll
Primer fibroblast Cell viability (% of controll) ([2]; 2.3 μM, 72 h): 99 % of controll
Primer fibroblast Cell viability (% of controll) ([2]; 3.4 μM, 72 h): 89 % of controll and 54 % of controll and 50 % of controll
Primer fibroblast Cell viability (% of controll) ([2]; 5.1 μM, 72 h): 0 % of controll
Primer fibroblast Cell viability (% of controll) ([2]; 7.7 μM, 72 h): 0 % of controll
Primer fibroblast Cell viability (% of controll) ([2]; 17.3 μM, 72 h): 0 % of controll
Primer fibroblast Cell viability (% of controll) ([2]; 26 μM, 72 h): 0 % of controll
IC50 ([2]; 72 h, read-out: IC50 Value ± SEM Primary Fibroblast, 72 h treatment, best-fit values, n = 3): 3.5 ± 0.17 µM
IC50 ([2]; read-out: Primary fibroblast IC50 values, Mean, mean of independently fitted replicate IC50 values (Supplement S.6), ONC201 value mathematically estimated from inflection point): 3.46 µM
Fadu Cell viability (% of controll) (Fadu cells; [3]): 108 % of controll and 104 % of controll
Fadu Cell viability (% of controll) (Fadu cells; [4]): 106 % of controll and 101 % of controll
Fadu Cell viability (% of controll) (Fadu cells; [5]): 96 % of controll and 91 % of controll
Fadu Cell viability (% of controll) (Fadu cells; [6]): 58 % of controll and 46 % of controll and 27 % of controll
Fadu Cell viability (% of controll) (Fadu cells; [7]): 1 % of controll and 0 % of controll
Fadu Cell viability (% of controll) (Fadu cells; [8]): 0 % of controll
Fadu Cell viability (% of controll) (Fadu cells; [9]): 0 % of controll
Fadu Cell viability (% of controll) (Fadu cells; [10]): 0 % of controll
viability at 0.7 µM (Fadu cells; Homo sapiens, FaDu, 72 h, read-out: Fadu Cell viability (% of controll), 0.7 μM, 72 h, dose–response, individual replicates): 108%
viability at 1 µM (Fadu cells; Homo sapiens, FaDu, 72 h, read-out: Fadu Cell viability (% of controll), 1 μM, 72 h, dose–response, individual replicates): 102%
viability at 1.5 µM (Fadu cells; Homo sapiens, FaDu, 72 h, read-out: Fadu Cell viability (% of controll), 1.5 μM, 72 h, dose–response, individual replicates): 105%
viability at 2.3 µM (Fadu cells; Homo sapiens, FaDu, 72 h, read-out: Fadu Cell viability (% of controll), 2.3 μM, 72 h, dose–response, individual replicates): 91%
viability at 7.7 µM (Fadu cells; Homo sapiens, FaDu, 72 h, read-out: Fadu Cell viability (% of controll), 7.7 μM, 72 h, dose–response, individual replicates): 0%
viability at 17.3 µM (Fadu cells; Homo sapiens, FaDu, 72 h, read-out: Fadu Cell viability (% of controll), 17.3 μM, 72 h, dose–response, individual replicates): 0%
viability at 26 µM (Fadu cells; Homo sapiens, FaDu, 72 h, read-out: Fadu Cell viability (% of controll), 26 μM, 72 h, dose–response, individual replicates): 0%
IC50 (Fadu cells; Homo sapiens, FaDu, 72 h, read-out: IC50 Value ± SEM Fadu, 72 h treatment, best-fit values, n = 3): 3.2 ± 0.06 µM
IC50 (Fadu cells; Homo sapiens, FaDu, read-out: Fadu IC50 values, Mean, mean of independently fitted replicate IC50 values (Supplement S.6)): 3.25 µM
Selectivity Index (SI) Fibroblast/Fadu (Fadu cells; ratio of mean best-fit IC50 for primary fibroblasts and best-fit IC50 for Fadu): 1.1
